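Cultured in 96-well plates, cells were exposed to test compound for 48 hours across five concentrations. Abbreviation: GI50, concentration required for 50% inhibition of growth.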 Calls of active or inactive are those of the source. No stated cut-off is given here; in the data, active = GI50 up to about 1.1 µM and inactive = higher.
Experiments:
Experiment in all cases: NCI-60 cell line screen, 48 h
A549 = system: A549
CCRF-CEM = system: CCRF-CEM
COLO 205 = system: COLO 205
HCT-116 = system: HCT-116
K562 = system: K562
KM12 = system: KM12
MOLT-4 = system: MOLT-4
OVCAR-3 = system: OVCAR-3
OVCAR-4 = system: OVCAR-4
OVCAR-5 = system: OVCAR-5
OVCAR-8 = system: OVCAR-8
RXF 393 = system: RXF 393
SF-268 = system: SF-268
SF-539 = system: SF-539
SK-MEL-2 = system: SK-MEL-2
SK-MEL-5 = system: SK-MEL-5
SN12C = system: SN12C
U-251 = system: U-251
UACC-62 = system: UACC-62
M14 = system: M14

| SMILES | GI50 (A549) | GI50 (CCRF-CEM) | GI50 (COLO 205) | GI50 (HCT-116) | GI50 (K562) | GI50 (KM12) | GI50 (MOLT-4) | GI50 (OVCAR-3) | GI50 (OVCAR-4) | GI50 (OVCAR-5) | GI50 (OVCAR-8) | GI50 (RXF 393) | GI50 (SF-268) | GI50 (SF-539) | GI50 (SK-MEL-2) | GI50 (SK-MEL-5) | GI50 (SN12C) | GI50 (U-251) | GI50 (UACC-62) | GI50 (M14) |
| --- | --- | --- | --- | --- | --- | --- | --- | --- | --- | --- | --- | --- | --- | --- | --- | --- | --- | --- | --- | --- |
| CSCC(CO)NC(=O)/C=C/c1c(C)[nH]c(=O)[nH]c1=O (centres undefined) | > 875 µM (inactive) | 153 µM (inactive) | 68.5 µM (inactive) | 507 µM (inactive) | 117 µM (inactive) | 695 µM (inactive) | 232 µM (inactive) | 53.1 µM (inactive) | 31.9 µM (inactive) | 352 µM (inactive) | 228 µM (inactive) | > 875 µM (inactive) | 223 µM (inactive) | > 875 µM (inactive) | 597 µM (inactive) | > 820 µM (inactive) | 367 µM (inactive) | 462 µM (inactive) | > 800 µM (inactive) |  |
| COc1ccc(N[S+]([O-])c2ccc(-c3ccccc3)cc2)cc1 (centres undefined) | > 100 µM (inactive) | > 100 µM (inactive) | > 100 µM (inactive) | > 100 µM (inactive) | > 100 µM (inactive) | 70.3 µM (inactive) | > 100 µM (inactive) | > 100 µM (inactive) |  | > 100 µM (inactive) | 29.5 µM (inactive) | > 100 µM (inactive) | 30.9 µM (inactive) | > 100 µM (inactive) |  | > 100 µM (inactive) | > 100 µM (inactive) | 35.1 µM (inactive) |  | 86.1 µM (inactive) |
| CCOC(=O)/C=C1/Oc2ccccc2C1(C)O (centres undefined) | > 100 µM (inactive) | > 100 µM (inactive) | > 100 µM (inactive) | > 100 µM (inactive) | > 100 µM (inactive) | > 100 µM (inactive) | > 100 µM (inactive) | > 100 µM (inactive) | > 100 µM (inactive) | > 100 µM (inactive) | > 100 µM (inactive) | 68.7 µM (inactive) | > 100 µM (inactive) |  | > 100 µM (inactive) | > 100 µM (inactive) | > 100 µM (inactive) | > 100 µM (inactive) | > 100 µM (inactive) | > 100 µM (inactive) |
| CN(N)c1nc(N)c(C#N)c(C#N)c1C#N | > 10 µM (inactive) | > 10 µM (inactive) | > 10 µM (inactive) | > 10 µM (inactive) | > 10 µM (inactive) | > 10 µM (inactive) | > 10 µM (inactive) | > 10 µM (inactive) | > 10 µM (inactive) | > 10 µM (inactive) | > 10 µM (inactive) |  | > 10 µM (inactive) | > 10 µM (inactive) |  | > 10 µM (inactive) | > 10 µM (inactive) | > 10 µM (inactive) | > 10 µM (inactive) | > 10 µM (inactive) |
| CC1OC(O)CC(OC(=O)c2ccccc2)C1OC(=O)c1ccccc1 (centres undefined) | > 100 µM (inactive) | 10.3 µM (inactive) | 27 µM (inactive) | 11.3 µM (inactive) | 16.8 µM (inactive) | 39.6 µM (inactive) | 13.9 µM (inactive) | 19.1 µM (inactive) | 15.1 µM (inactive) | > 100 µM (inactive) | 15.7 µM (inactive) | 18.8 µM (inactive) | 16.2 µM (inactive) | 17.5 µM (inactive) |  | 16.7 µM (inactive) | 17.3 µM (inactive) | 30.1 µM (inactive) | 16.7 µM (inactive) | 16.7 µM (inactive) |
| CC1(C)CC[C@]2(C)CC[C@]3(C)C(=CC[C@@H]4[C@@]5(C)CCC(=O)C(C)(C)[C@@H]5[C@H](O)C[C@]43C)[C@@H]2C1 | 20.3 µM (inactive) | 30.8 µM (inactive) | 17.4 µM (inactive) | 16.3 µM (inactive) |  | 19.5 µM (inactive) | 31.5 µM (inactive) | 16.5 µM (inactive) | 18.1 µM (inactive) | 16 µM (inactive) | 18.9 µM (inactive) | 16.1 µM (inactive) | 17.8 µM (inactive) | 17.8 µM (inactive) | 16 µM (inactive) | 17.4 µM (inactive) | 15.1 µM (inactive) | 16.9 µM (inactive) | 15.9 µM (inactive) | 19 µM (inactive) |
| CC(C)=CC(=O)OC1C2C(C)=CC(O)C(O)C2(C)C2C3(O)OCC24C(CC(=O)OC14)C(C)C3O (centres undefined) | 1.16 µM (inactive) | 0.0462 µM (active) | 0.778 µM (active) | 0.0361 µM (active) | 0.0378 µM (active) | 0.0791 µM (active) | 0.0225 µM (active) | 0.0339 µM (active) | 0.0647 µM (active) | 0.802 µM (active) | 0.166 µM (active) | 0.183 µM (active) | 0.182 µM (active) | 0.0466 µM (active) | 0.173 µM (active) | 0.0252 µM (active) | 0.386 µM (active) | 0.0519 µM (active) | 0.0649 µM (active) |  |
| N[C@@H](CSCSC[C@H](N)C(=O)O)C(=O)O | > 225 µM (inactive) | 89.5 µM (inactive) | > 225 µM (inactive) | > 225 µM (inactive) | > 225 µM (inactive) | 126 µM (inactive) | 195 µM (inactive) | > 225 µM (inactive) | > 225 µM (inactive) | > 225 µM (inactive) | 35.6 µM (inactive) | > 225 µM (inactive) | > 225 µM (inactive) | > 225 µM (inactive) | > 225 µM (inactive) | > 225 µM (inactive) | > 225 µM (inactive) | > 225 µM (inactive) | > 225 µM (inactive) |  |

From ChEMBL document CHEMBL1201862, “PubChem BioAssay data set” (2004)
